# From patent US20230295137A1, “COVALENT EGFR INHIBITORS AND METHODS OF USE THEREOF” (DANA-FARBER CANCER INSTITUTE, INC., priority 2020, published 2023)
# pEC50: −log10 of the molar value.
# How the values were obtained:
# [1] = system: EGFR L858R/C797S Ba/F3 cells; test: Ba/F3 cell proliferation (Cell Titer Glo), EGFR L858R/C797S; assay type: cell-based, murine; details: Mus musculus, BaF3, Ba/F3 cells with EGFR L858R/C797S, 72 hours exposure, read-out: L/C797S
# Text: (§1) The selectivity between wild-type EGER and EGFR containing one or more mutations as described herein can also be measured using cellular proliferation assays where cell proliferation is dependent on kinase activity. For example, murine Ba/F3 cells transfected with a suitable version of wild-type EGFR (such as VIII; containing a WT EGFR kinase domain), or Ba/F3 cells transfected with L858R/T790M, Del/T790M/L718Q, L858R/T790M/L718Q, L858R/T790M/C797S, Del/T790M/C797S, L858R/T790M/I941R, or Exon 19 deletion/T790M can be used.
# (§2) The EGFR mutant L858R Ba/F3 cells have been previously described (Zhou, W., et al. Nature 482, 2009, 1070-1074). […]
# (§3) Growth and inhibition of growth was assessed by the Cell Titer Glo assay (Promega, Madison, WI) and was performed according to the manufacturer's instructions. The Cell Titer Glo assay is a luminescence-based method used to determine the number of viable cells based on quantitation of the ATP present, which is directly proportional to the amount of metabolically active cells present. Ba/F3 cells of different EGFR genotypes were exposed to compounds for 72 hours and the number of cells used per experiment was determined empirically as has been previously established (Zhou, et al., Nature 2009). […]
# [2] = system: EGFR mutant L858R Ba/F3 cells; test: Ba/F3 cell proliferation (Cell Titer Glo), EGFR L858R; assay type: cell-based, murine; details: Mus musculus, BaF3, Ba/F3 cells with EGFR L858R, 72 hours exposure, read-out: L BaF3
# Text: as §1, §2, §3
pEC50 [1],pEC50 [2],SMILES
6.37,6.96,C=CC(=O)Nc1cc(C(=O)Nc2nc3cccc(C)c3n2[C@@H]2CCCCN(C(C)=O)C2)cs1 [Compound 002]
6.76,7.21,C=CC(=O)Nc1csc(C(=O)Nc2nc3cccc(C)c3n2[C@@H]2CCCCN(C(C)=O)C2)c1 [Compound 009]
